# Reference: publication PMC10177510, “A Multicenter, Open-Label, Phase I/II Study of FN-1501 in Patients with Advanced Solid Tumors” (Cancers, 2023)
# System: advanced solid tumors
# Experiment: Anti-tumor activity in patients (RECIST best response, PFS, OS)
# Assay type: in vivo, human
# Description: Among 64 pts enrolled in the trial, 16 failed screening and 48 (75%) were treated with FN-1501 at one of the dose levels tested. Eligible pts were ≥18 years of age with (a) relapsed or refractory AML that had exhausted or was ineligible for therapeutic options, or with ≥5% blasts in the bone marrow according to World Health Organization (WHO) 2016 criteria; or (b) solid tumors evaluable per RECIST v1.1 that had exhausted (or were ineligible for) therapeutic options likely to convey clinical benefit. Other inclusion criteria included Eastern Cooperative Oncology Group (ECOG) performance status (PS) of <2 and life expectancy ≥3 months. Pts with a clinically controlled central nervous system (CNS) tumor or metastasis and adequate organ function were eligible to participate. Ongoing use of strong CYP3A inhibitors or inducers was exclusionary unless participants were willing and able to change to use of an equivalent medication without this profile. Other exclusion criteria included current or recent major surgical procedures, anticancer therapy (chemotherapy, immunotherapy), biologic, live virus vaccine, or investigational therapy within 21 days prior to initiation of the study treatment. For patients in the AML cohort, acute promyelocytic leukemia (APML), chronic myelogenous leukemia in blast crisis (BCR-ABL), or active CNS leukemia were exclusionary.
# Descriptive statistics were used for all safety, PK, and efficacy parameters. Data were summarized using descriptive statistics (number of pts, mean, median, standard deviation, minimum, and maximum) for continuous variables and using frequencies and percentages for discrete variables. Time-to-event variables were summarized using Kaplan–Meier methods and figures for the estimated median time.
compound,measurement,setting,value
CN1CCN(Cc2ccc(NC(=O)c3[nH]ncc3Nc3ncnc4[nH]ccc34)cc2)CC1 [FN-1501],"Complete Response, best RECIST response, n (%)","2.5 mg/day, N = 4, ITT",0
same,DCR,"2.5 mg/day, N = 4, ITT",0.0%
same,"Landmark Progression Free Survival Rate at 3 months (Table S6, Overall Survival)","2.5 mg/day, N = 4, ITT",37.5%
same,"Landmark Progression Free Survival Rate at 6 months (Table S6, Overall Survival)","2.5 mg/day, N = 4, ITT",37.5%
same,"Landmark Progression Free Survival Rate at 9 months (Table S6, Overall Survival)","2.5 mg/day, N = 4, ITT",37.5%
same,"Landmark Progression Free Survival Rate at 12 months (Table S6, Overall Survival)","2.5 mg/day, N = 4, ITT",37.5%
same,Median overall survival,"2.5 mg/day, N = 4, ITT",2.0 months
same,Median progression-free survival,"2.5 mg/day, N = 4, ITT",1.8 months
same,ORR,"2.5 mg/day, N = 4, ITT",0.0%
same,"Partial Response, best RECIST response, n (%)","2.5 mg/day, N = 4, ITT",0
same,Progression Free Survival Rate at 3 months,"2.5 mg/day, N = 4, ITT",0.0%
same,Progression Free Survival Rate at 6 months,"2.5 mg/day, N = 4, ITT",0.0%
same,Progression Free Survival Rate at 9 months,"2.5 mg/day, N = 4, ITT",0.0%
same,Progression Free Survival Rate at 12 months,"2.5 mg/day, N = 4, ITT",0.0%
same,"Progressive Disease, best RECIST response, n (%)","2.5 mg/day, N = 4, ITT",3
same,"Stable Disease, best RECIST response, n (%)","2.5 mg/day, N = 4, ITT",0
same,"Complete Response, best RECIST response, n (%)","5 mg/day, N = 3, ITT",0
same,DCR,"5 mg/day, N = 3, ITT",0.0%
same,"Landmark Progression Free Survival Rate at 3 months (Table S6, Overall Survival)","5 mg/day, N = 3, ITT",50.0%
same,"Landmark Progression Free Survival Rate at 6 months (Table S6, Overall Survival)","5 mg/day, N = 3, ITT",0.0%
same,"Landmark Progression Free Survival Rate at 9 months (Table S6, Overall Survival)","5 mg/day, N = 3, ITT",0.0%
same,"Landmark Progression Free Survival Rate at 12 months (Table S6, Overall Survival)","5 mg/day, N = 3, ITT",0.0%
same,Median overall survival,"5 mg/day, N = 3, ITT",2.6 months
same,Median progression-free survival,"5 mg/day, N = 3, ITT",1.7 months
same,ORR,"5 mg/day, N = 3, ITT",0.0%
same,"Partial Response, best RECIST response, n (%)","5 mg/day, N = 3, ITT",0
same,Progression Free Survival Rate at 3 months,"5 mg/day, N = 3, ITT",0.0%
same,Progression Free Survival Rate at 6 months,"5 mg/day, N = 3, ITT",0.0%
same,Progression Free Survival Rate at 9 months,"5 mg/day, N = 3, ITT",0.0%
same,Progression Free Survival Rate at 12 months,"5 mg/day, N = 3, ITT",0.0%
same,"Progressive Disease, best RECIST response, n (%)","5 mg/day, N = 3, ITT",2
same,"Stable Disease, best RECIST response, n (%)","5 mg/day, N = 3, ITT",0
same,"Complete Response, best RECIST response, n (%)","10 mg/day, N = 5, ITT",0
same,DCR,"10 mg/day, N = 5, ITT",20.0%
same,"Landmark Progression Free Survival Rate at 3 months (Table S6, Overall Survival)","10 mg/day, N = 5, ITT",60.0%
same,"Landmark Progression Free Survival Rate at 6 months (Table S6, Overall Survival)","10 mg/day, N = 5, ITT",60.0%
same,"Landmark Progression Free Survival Rate at 9 months (Table S6, Overall Survival)","10 mg/day, N = 5, ITT",60.0%
same,"Landmark Progression Free Survival Rate at 12 months (Table S6, Overall Survival)","10 mg/day, N = 5, ITT",60.0%
same,Median progression-free survival,"10 mg/day, N = 5, ITT",1.4 months
same,ORR,"10 mg/day, N = 5, ITT",0.0%
same,"Partial Response, best RECIST response, n (%)","10 mg/day, N = 5, ITT",0
same,Progression Free Survival Rate at 3 months,"10 mg/day, N = 5, ITT",20.0%
same,Progression Free Survival Rate at 6 months,"10 mg/day, N = 5, ITT",0.0%
same,Progression Free Survival Rate at 9 months,"10 mg/day, N = 5, ITT",0.0%
same,Progression Free Survival Rate at 12 months,"10 mg/day, N = 5, ITT",0.0%
same,"Progressive Disease, best RECIST response, n (%)","10 mg/day, N = 5, ITT",2
same,"Stable Disease, best RECIST response, n (%)","10 mg/day, N = 5, ITT",1 (20)
same,"Complete Response, best RECIST response, n (%)","15 mg/day, N = 3, ITT",0
same,DCR,"15 mg/day, N = 3, ITT",100.0%
same,Median progression-free survival,"15 mg/day, N = 3, ITT",4.1 months
same,ORR,"15 mg/day, N = 3, ITT",0.0%
same,"Partial Response, best RECIST response, n (%)","15 mg/day, N = 3, ITT",0
same,Progression Free Survival Rate at 6 months,"15 mg/day, N = 3, ITT",33.3%
same,Progression Free Survival Rate at 9 months,"15 mg/day, N = 3, ITT",0.0%
same,Progression Free Survival Rate at 12 months,"15 mg/day, N = 3, ITT",0.0%
same,"Progressive Disease, best RECIST response, n (%)","15 mg/day, N = 3, ITT",0
same,"Stable Disease, best RECIST response, n (%)","15 mg/day, N = 3, ITT",3 (100)
same,"Complete Response, best RECIST response, n (%)","22.5 mg/day, N = 4, ITT",0
same,DCR,"22.5 mg/day, N = 4, ITT",50.0%
same,"Landmark Progression Free Survival Rate at 3 months (Table S6, Overall Survival)","22.5 mg/day, N = 4, ITT",50.0%
same,"Landmark Progression Free Survival Rate at 6 months (Table S6, Overall Survival)","22.5 mg/day, N = 4, ITT",50.0%
same,"Landmark Progression Free Survival Rate at 9 months (Table S6, Overall Survival)","22.5 mg/day, N = 4, ITT",25.0%
same,"Landmark Progression Free Survival Rate at 12 months (Table S6, Overall Survival)","22.5 mg/day, N = 4, ITT",25.0%
same,Median overall survival,"22.5 mg/day, N = 4, ITT",5.4 months
same,Median progression-free survival,"22.5 mg/day, N = 4, ITT",5.0 months
same,ORR,"22.5 mg/day, N = 4, ITT",0.0%
same,"Partial Response, best RECIST response, n (%)","22.5 mg/day, N = 4, ITT",0
same,Progression Free Survival Rate at 3 months,"22.5 mg/day, N = 4, ITT",50.0%
same,Progression Free Survival Rate at 6 months,"22.5 mg/day, N = 4, ITT",50.0%
same,Progression Free Survival Rate at 9 months,"22.5 mg/day, N = 4, ITT",25.0%
same,Progression Free Survival Rate at 12 months,"22.5 mg/day, N = 4, ITT",25.0%
same,"Progressive Disease, best RECIST response, n (%)","22.5 mg/day, N = 4, ITT",2 (50)
same,"Stable Disease, best RECIST response, n (%)","22.5 mg/day, N = 4, ITT",2 (50)
same,"Complete Response, best RECIST response, n (%)","30 mg/day, N = 3, ITT",0
same,DCR,"30 mg/day, N = 3, ITT",100.0%
same,Median progression-free survival,"30 mg/day, N = 3, ITT",3.4 months
same,ORR,"30 mg/day, N = 3, ITT",0.0%
same,"Partial Response, best RECIST response, n (%)","30 mg/day, N = 3, ITT",0
same,Progression Free Survival Rate at 3 months,"30 mg/day, N = 3, ITT",50.0%
same,Progression Free Survival Rate at 6 months,"30 mg/day, N = 3, ITT",0.0%
same,Progression Free Survival Rate at 9 months,"30 mg/day, N = 3, ITT",0.0%
same,Progression Free Survival Rate at 12 months,"30 mg/day, N = 3, ITT",0.0%
same,"Progressive Disease, best RECIST response, n (%)","30 mg/day, N = 3, ITT",0
same,"Stable Disease, best RECIST response, n (%)","30 mg/day, N = 3, ITT",3 (100)
same,Patients with best response of partial response (PR) by RECIST,"40 mg/day cohort, efficacy evaluable population",25%
same,"Complete Response, best RECIST response, n (%)","40 mg/day, N = 4, ITT",0
same,DCR,"40 mg/day, N = 4, ITT",50.0%
same,"Landmark Progression Free Survival Rate at 3 months (Table S6, Overall Survival)","40 mg/day, N = 4, ITT",75.0%
same,"Landmark Progression Free Survival Rate at 6 months (Table S6, Overall Survival)","40 mg/day, N = 4, ITT",75.0%
same,"Landmark Progression Free Survival Rate at 9 months (Table S6, Overall Survival)","40 mg/day, N = 4, ITT",75.0%
same,"Landmark Progression Free Survival Rate at 12 months (Table S6, Overall Survival)","40 mg/day, N = 4, ITT",75.0%
same,Median progression-free survival,"40 mg/day, N = 4, ITT",2.6 months
same,ORR,"40 mg/day, N = 4, ITT",25.0%
same,"Partial Response, best RECIST response, n (%)","40 mg/day, N = 4, ITT",1
same,Progression Free Survival Rate at 3 months,"40 mg/day, N = 4, ITT",33.3%
same,Progression Free Survival Rate at 6 months,"40 mg/day, N = 4, ITT",0.0%
same,Progression Free Survival Rate at 9 months,"40 mg/day, N = 4, ITT",0.0%
same,Progression Free Survival Rate at 12 months,"40 mg/day, N = 4, ITT",0.0%
